Measurements taken from US8247211B2, “Glycopeptide antibiotics” (American Cyanamid Company, priority 2001, dated 2012).

Experiments:
[1] = Anatomic pathology (heart and kidney histopathology) in mice; format: in vivo, CD-1 mice; settings: 20 mg/kg intravenously daily for 9 days, microscopic histopathology on day 10
How it was run: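 Juvenile CD-1 mice (20 days old; 5 vehicle, 5 treated) received glycopeptide antibiotic 20 mg/kg i.v. daily for 9 days. Necropsied tissues formalin-fixed, paraffin-embedded, H&E stained and examined microscopically; findings graded slight to severe versus controls.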

Staphylococcus sp. = assay: In vitro antibacterial evaluation: minimum inhibitory concentration (MIC), broth dilution method; format: cell-based; settings: 18 hours at 35° C.
How it was run: (§1)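 Following NCCLS approved standard M7-A2, compounds are serially diluted from 64 to 0.06 μg/mL in Muller-Hinton II […] and inoculated at 5×10^5 CFU/mL; the MIC is the minimum concentration at which growth is inhibited.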

Enterococcus sp. = assay: as above; format: cell-based; settings: 18 hours at 35° C.
How it was run: as §1

Streptococcus sp. = assay: as above; format: cell-based; settings: 18 hours at 35° C.
How it was run: as §1

Escherichia coli = assay: as above; format: cell-based; settings: 18 hours at 35° C.
How it was run: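 NCCLS M7-A2 broth dilution; Muller-Hinton II […]; 5×10^5 CFU/mL; 64-0.06 μg/mL. MIC = lowest concentration with no growth.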

[2] = system: Staphylococcus aureus-SMITH (GC 4543); assay: Acute lethal infection in mice (ED50); format: in vivo; settings: female CD-1 mice, intraperitoneal challenge, intravenous dose 30 min. after infection, 7 day survival ratios
How it was run: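 Female CD-1 mice (20 ± 1-2 g) were infected intraperitoneally with enough bacteria, suspended in Trypticase Soy Broth or hog gastric mucin, to kill untreated controls within 24-48 hr. Compound in saline or 5% dextrose was given intravenously 30 min after infection. ED50 came from pooled 7-day survival over 3 tests.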

[3] = format: in vivo; settings: mice, 20 mg/kg intravenously daily for 9 days, serum on day 10
Procedure: 20-day-old CD-1 mice were divided into a vehicle control group (5 mice) and a treatment group (5 mice). Samples of glycopeptide antibiotics were administered at 20 mg/kg intravenously daily for 9 days. Animals were necropsied on day 10 Sera were analyzed for BUN (blood urea nitrogen), creatinine, AST (aspartic aminotransferase), and ALT (alanine aminotransferase) by routine, standard, automated methods using an Hitachi 747 chemistry analyzer.

[4] = broth dilution, inoculum 5×10^5 CFU/mL

COc1ccc2cc(COCC3OC(OC4C(CO)OC(Oc5ccc(CC6NC(=O)C(C(C)c7ccccc7)NC(=O)CNC(=O)C(CO)NC(=O)C(CC7CNC(=N)N7C7OC(CO)C(O)C(O)C7O)NC(=O)C(CC7CNC(=N)N7)NC6=O)cc5)C(O)C4O)C(O)C(O)C3O)ccc2c1 (stereo not drawn) [Example 245, Cyclo[3-(2-iminoimidazolidin-4-yl)alanyl-3-(3-hexopyranosyl-2-iminoimidazolidin-4-yl)-alanylserylglycyl-β-methylphenylalanyl-O-[4-O-[6-O-[(6-methoxy-2-naphthyl)methyl]-hexopyranosyl)hexopyranosyl]tyrosyl]]
4 mg/kg: median effective dose (ED50), Staphylococcus aureus-SMITH (GC 4543) [2]
+++: Anatomical Pathology (Day 10), Kidney [1]
4 µg/mL: MIC Coagulase Negative Staphylococcus (GC 4547) (Staphylococcus sp.; Coagulase Negative Staphylococcus (GC 4547)) | MIC Staphylococcus aureus (ATCC 29213) (Staphylococcus sp.; Staphylococcus aureus (ATCC 29213)) | MIC Staphylococcus aureus (GC 3051) (Staphylococcus sp.; Staphylococcus aureus (GC 3051)) | MIC Staphylococcus aureus (GC 3053) (Staphylococcus sp.; Staphylococcus aureus (GC 3053)) | MIC Staphylococcus aureus (GC 4541) (Staphylococcus sp.; Staphylococcus aureus (GC 4541)) | MIC Staphylococcus aureus (GC 4542) (Staphylococcus sp.; Staphylococcus aureus (GC 4542)) | MIC Staphylococcus aureus (GC 4545) (Staphylococcus sp.; Staphylococcus aureus (GC 4545)) | MIC Staphylococcus aureus-SMITH (GC 4543) (Staphylococcus sp.; Staphylococcus aureus-SMITH (GC 4543)) | MIC Staphylococcus haemolyticus (GC 4546) (Staphylococcus sp.; Staphylococcus haemolyticus (GC 4546)) | MIC Enterococcus faecium (GC 4557) (Enterococcus sp.; Enterococcus faecium (GC 4557)) | MIC Streptococcus agalactiae (GC 4564) (Streptococcus sp.; Streptococcus agalactiae (GC 4564)) | MIC Streptococcus pneumoniae (GC 4565) (Streptococcus sp.; Streptococcus pneumoniae (GC 4565)) | MIC Streptococcus pyogenes (GC 4563) (Streptococcus sp.; Streptococcus pyogenes (GC 4563)) | MIC Streptococcus agalactiae (GC 4564) (Streptococcus sp.; [4]) | MIC Streptococcus pneumoniae (GC 4565) (Streptococcus sp.; [4]) | MIC Streptococcus pyogenes (GC 4563) (Streptococcus sp.; [4]) | MIC Escherichia coli (GC 4560) (Escherichia coli; Escherichia coli (GC 4560))
+160%: Clinical Chemistry (Day 10) % of Control, BUN [3]
1 µg/mL: MIC Coagulase Negative Staphylococcus (GC 4549) (Staphylococcus sp.; Coagulase Negative Staphylococcus (GC 4549)) | MIC Streptococcus pneumoniae (GC 1894) (Streptococcus sp.; Streptococcus pneumoniae (GC 1894)) | MIC Streptococcus pneumoniae (GC 1894) (Streptococcus sp.; [4])
0: Anatomical Pathology (Day 10), Heart [1]
32 µg/mL: MIC Enterococcus faecalis (ATCC 29212) (Enterococcus sp.; Enterococcus faecalis (ATCC 29212)) | MIC Enterococcus faecalis (GC 2691) (Enterococcus sp.; Enterococcus faecalis (GC 2691)) | MIC Enterococcus faecalis (GC 4554) (Enterococcus sp.; Enterococcus faecalis (GC 4554)) | MIC Enterococcus faecalis (GC 6189) (Enterococcus sp.; Enterococcus faecalis (GC 6189)) | MIC Enterococcus faecalis (GC 2691) (Enterococcus sp.; [4]) | MIC Escherichia coli (GC 4559) (Escherichia coli; Escherichia coli (GC 4559))
64 µg/mL: MIC Escherichia coli (ATCC 25922) (Escherichia coli; Escherichia coli (ATCC 25922))
2 µg/mL: MIC Coagulase Negative Staphylococcus (GC 4548) (Staphylococcus sp.; Coagulase Negative Staphylococcus (GC 4548)) | MIC Coagulase Negative Staphylococcus (GC 6257) (Staphylococcus sp.; Coagulase Negative Staphylococcus (GC 6257)) | MIC Streptococcus pneumoniae (ATCC 6301) (Streptococcus sp.; Streptococcus pneumoniae (ATCC 6301)) | MIC Streptococcus pneumoniae (ATCC 6301) (Streptococcus sp.; [4])
16 µg/mL: MIC Enterococcus avium (GC 4558) (Enterococcus sp.; Enterococcus avium (GC 4558)) | MIC Enterococcus faecalis (GC 2242) (Enterococcus sp.; Enterococcus faecalis (GC 2242)) | MIC Enterococcus faecalis (GC 3059) (Enterococcus sp.; Enterococcus faecalis (GC 3059)) | MIC Enterococcus faecalis (GC 4552) (Enterococcus sp.; Enterococcus faecalis (GC 4552)) | MIC Enterococcus faecalis (GC 4553) (Enterococcus sp.; Enterococcus faecalis (GC 4553)) | MIC Enterococcus faecium (GC 2243) (Enterococcus sp.; Enterococcus faecium (GC 2243)) | MIC Enterococcus faecium (GC 4556) (Enterococcus sp.; Enterococcus faecium (GC 4556)) | MIC Enterococcus faecalis (GC 2242) (Enterococcus sp.; [4]) | MIC Enterococcus faecalis (GC 3059) (Enterococcus sp.; [4])
8 µg/mL: MIC Coagulase Negative Staphylococcus (GC 4551) (Staphylococcus sp.; Coagulase Negative Staphylococcus (GC 4551)) | MIC Staphylococcus aureus (GC 1131) (Staphylococcus sp.; Staphylococcus aureus (GC 1131)) | MIC Staphylococcus aureus (GC 4544) (Staphylococcus sp.; Staphylococcus aureus (GC 4544))
